Results published in PubChem BioAssay (NCI).
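Cells were grown in 96-well plates and exposed to each compound for 48 hours at five concentrations; endpoints were interpolated linearly between bracketing concentrations, or set to the highest concentration if not reached. The concentration for full growth arrest is given as TGI.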

Tests used:
Test in all cases: inhibition of tumour cell growth, NCI panel, 48 h
HCT-116 colon = tested on: HCT-116 colon
SF-268 CNS = tested on: SF-268 CNS
HOP-62 NSCLC = tested on: HOP-62 NSCLC
SF-295 CNS = tested on: SF-295 CNS
SK-OV-3 ovarian = tested on: SK-OV-3 ovarian
HOP-92 NSCLC = tested on: HOP-92 NSCLC
MALME-3M melanoma = tested on: MALME-3M melanoma
LOX IMVI melanoma = tested on: LOX IMVI melanoma
UO-31 renal = tested on: UO-31 renal
NCI-H226 lung = tested on: NCI-H226 lung
HT29 colon = tested on: HT29 colon
MDA-N = tested on: MDA-N
OVCAR-8 ovarian = tested on: OVCAR-8 ovarian

Structure (SMILES) | TGI (HCT-116 colon) [µM] | TGI (SF-268 CNS) [µM] | TGI (HOP-62 NSCLC) [µM] | TGI (SF-295 CNS) [µM] | TGI (SK-OV-3 ovarian) [µM] | TGI (HOP-92 NSCLC) [µM] | TGI (MALME-3M melanoma) [µM] | TGI (LOX IMVI melanoma) [µM] | TGI (UO-31 renal) [µM] | TGI (NCI-H226 lung) [µM] | TGI (HT29 colon) [µM] | TGI (MDA-N) [µM] | TGI (OVCAR-8 ovarian) [µM]
O=C(CCN1CCCC1)c1ccc(Oc2ccc(F)cc2)cc1 | > 100 | > 100 | > 100 | > 100 | > 100 | 41.5 | > 100 | > 100 | > 100 | > 100 | > 100 | > 100 | > 100
CCOC(=O)c1ccc(N(CCOS(=O)(=O)c2ccc(C)cc2)CCOS(=O)(=O)c2ccc(C)cc2)cc1 | > 100 | > 100 |  | > 100 |  | > 100 | > 100 | > 100 | > 100 |  | > 100 | > 100 | > 100
CC(=O)OCC1=CC2CCC3C(C)(CCC[C@]3(C)COC(C)=O)C23CC[C@H]1C3 (stereo partly drawn) | > 100 | > 100 | > 100 | > 100 | > 100 | 90.2 | > 100 | 62.3 | > 100 | > 100 | > 100 |  | > 100
CCOC(=O)c1ccn2c(c1)c(C#N)c1nc3ccccc3nc12 | > 100 | > 100 | > 100 |  | > 100 |  | > 100 | > 100 | > 100 |  |  |  | > 100
CC(C)=CCOc1ccc(-c2coc3cc4c(c(O)c3c2=O)C=CC(C)(C)O4)cc1 | > 100 | > 100 | > 100 | > 100 |  |  |  | > 100 | > 100 | > 100 | > 100 |  | > 100
Oc1ccc(/C=N/c2nccs2)c(O)c1 | > 100 | > 100 | > 100 | > 100 | > 100 |  | > 100 | > 100 | > 100 | > 100 | > 100 | > 100 | > 100
Cn1c(=O)[nH]c2c(c1=O)C(=O)CN2 | > 100 | > 100 |  | > 100 | > 100 |  | > 100 | > 100 | > 100 | > 100 |  |  | > 100
COC(=O)C(=O)C(C(C)=O)C(=O)C(=O)Nc1ccc(C)cc1C (stereo not drawn) | > 100 | > 100 | > 100 | > 100 | > 100 | > 100 |  | > 100 | > 100 | > 100 | > 100 |  | > 100
COC1(C)CNCC(C)(C)NC(=O)C(C)(OC)CNCC(C)(C)NC1=O (stereo not drawn) | > 100 | > 100 | > 100 | > 100 | > 100 | > 100 | > 100 | > 100 | > 100 | > 100 | > 100 |  | > 100
COc1nc2c(c(=O)[nH]1)N=C(c1ccc(Cl)cc1)CC(c1ccccc1)N2 (stereo not drawn) | > 100 |  | > 100 | 70.7 |  | 67.9 |  | 57.1 | > 100 | > 100 | > 100 | 76.8 | 60.9
O=Cc1ccc(-c2ccc(S(=O)(=O)O)cc2)o1 | > 100 | > 100 |  | > 100 | > 100 |  | > 100 | > 100 | > 100 | > 100 | > 100 | > 100 | > 100
CCCCCC(/C=C/c1ncccc1OCCCCCC(=O)O)=N\NC1=NCCN1 | > 100 | > 100 | > 100 | > 100 | > 100 | > 100 | > 100 | > 100 | > 100 | > 100 | > 100 |  | > 100
C[Si](C)(C)/C=C/CN1C(=O)CCC1=O | > 100 | > 100 |  |  | > 100 | > 100 | > 100 | > 100 | > 100 |  | > 100 |  | 
CC(=O)OCC1OC(n2c(O)c(N=NC(N)=S)c3ccc([N+](=O)[O-])cc32)C(OC(C)=O)C1OC(C)=O (stereo not drawn) | 29.5 | > 100 | > 100 | > 100 | > 100 | > 100 | > 100 | 43.1 |  | 84.7 | 96.2 |  | 43.1
C/C(=C\CC/C=C(\C)CC/C=C(\C)CCC1SC1(C)C)CC/C=C(\C)CCC1OC1(C)C (stereo not drawn) | > 100 | > 100 |  | > 100 | > 100 | > 100 | > 100 |  | > 100 | > 100 | > 100 |  | > 100
